Experimental data reported in US12304932B2, “PACAP stabilized peptide” (SENJU PHARMACEUTICAL CO., LTD., priority 2017, dated 2025).
Numbered stars: 1 amine (or outer) side, 2 acyl side, 3 side chain; on linkers, the order of the positions; unused ones are H or OH. Square brackets hold non-standard residues; d marks the D form. Peptide text beside a SMILES is read from it. * marks the point of attachment. Ala(1H-tetrazol-5-yl) = N[C@@H](Cc1nnn[nH]1)C(=O)O; X1 = O=C([C@H](CCc1nnn[nH]1)N[*:1])[*:2]; Nle = CCCC[C@H](N)C(=O)O; Ms = CS(=O)(=O)*

Test: Peptide stability tests 2 and 3: Tris buffer pH 7.0, stored at 60° C., HPLC conditions 2
Assay type: physicochemical
Conditions: Tris buffer pH 7.0, 60° C.; for survival rate after correction for water, 60° C., 1-week storage / survival rate after correction for water, 60° C., 2-week storage / survival rate after correction for water, 60° C., 2-week storage (Table 7-2): 100 μM peptide; for survival rate after correction for water, 60° C., 2-week storage / survival rate after correction for water, 60° C., 2-week storage (Table 7-2): 2 weeks
Outline: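 Survival rate, corrected for water, was quantified by reversed-phase C18 HPLC (220 nm; formic acid water/acetonitrile gradient; 40° C. column) against an initial unstored standard. Samples were 100 μM peptide in pH 7.0 Tris stored 1–2 weeks at 60° C.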

SMILES	survival rate after correction for water, 60° C., 1-week storage [%]	survival rate after correction for water, 60° C., 2-week storage [%]	stability in aqueous solution, in words	survival rate after correction for water, 60° C., 2-week storage (Table 7-2) [%]
CCCC[C@H](NC(=O)[C@H](CCC(N)=O)NC(=O)[C@H](CCCCN)NC(=O)[C@H](CCCNC(=N)N)NC(=O)[C@H](Cc1ccc(O)cc1)NC(=O)[C@H](CCCNC(=N)N)NC(=O)[C@H](CO)NC(=O)[C@H](Cc1ccc(O)cc1)NC(=O)[C@H](CO)NC(=O)[C@H](Cc1nnn[nH]1)NC(=O)[C@@H](NC(=O)[C@H](Cc1ccccc1)NC(=O)[C@@H](NC(=O)CNC(=O)[C@H](Cc1nnn[nH]1)NC(=O)[C@H](CO)NC(=O)[C@@H](N)Cc1c[nH]cn1)[C@@H](C)CC)[C@@H](C)O)C(=O)N[C@@H](C)C(=O)N[C@H](C(=O)N[C@@H](CCCCN)C(=O)N[C@@H](CCCCN)C(=O)N[C@@H](Cc1ccc(O)cc1)C(=O)N[C@@H](CC(C)C)C(=O)N[C@@H](C)C(=O)N[C@@H](C)C(=O)N[C@H](C(=O)N[C@@H](CC(C)C)C(N)=O)C(C)C)C(C)C [Peptide 6] (H-HS[Ala(1H-tetrazol-5-yl)]GIFT[Ala(1H-tetrazol-5-yl)]SYSRYRKQ[Nle]AVKKYLAAVL-NH2)	91.3	82.4	drastically increased stability	
CC[C@H](C)[C@H](NC(=O)[C@H](C)NC(=O)[C@H](Cc1nnn[nH]1)NC(=O)[C@H](C)NC(=O)[C@H](Cc1c[nH]cn1)NC(C)=O)C(=O)N[C@@H](Cc1ccccc1)C(=O)N[C@H](C(=O)N[C@@H](Cc1nnn[nH]1)C(=O)N[C@@H](CO)C(=O)N[C@@H](Cc1ccc(O)cc1)C(=O)N[C@@H](CO)C(=O)N[C@@H](CCCNC(=N)N)C(=O)N[C@@H](Cc1ccc(O)cc1)C(=O)N[C@@H](CCCNC(=N)N)C(=O)N[C@@H](CCCCN)C(=O)N[C@@H](CCC(N)=O)C(=O)N[C@@H](C)C(=O)N[C@@H](C)C(=O)N[C@H](C(=O)N[C@@H](CCCCN)C(=O)N[C@@H](CCCCN)C(=O)N[C@@H](Cc1ccc(O)cc1)C(=O)N[C@@H](CC(C)C)C(=O)N[C@@H](C)C(=O)N[C@@H](C)C(=O)N[C@H](C(=O)N[C@@H](CC(C)C)C(N)=O)C(C)C)C(C)C)[C@@H](C)O [Peptide 33] (Ac-HA[Ala(1H-tetrazol-5-yl)]AIFT[Ala(1H-tetrazol-5-yl)]SYSRYRKQAAVKKYLAAVL-NH2)				85.3
CC[C@H](C)[C@H](NC(=O)CNC(=O)[C@H](Cc1nnn[nH]1)NC(=O)[C@H](C)NC(=O)[C@H](Cc1c[nH]cn1)NC(C)=O)C(=O)N[C@@H](Cc1ccccc1)C(=O)N[C@H](C(=O)N[C@@H](Cc1nnn[nH]1)C(=O)N[C@@H](CO)C(=O)N[C@@H](Cc1ccc(O)cc1)C(=O)N[C@@H](CO)C(=O)N[C@@H](CCCNC(=N)N)C(=O)N[C@@H](Cc1ccc(O)cc1)C(=O)N[C@@H](CCCNC(=N)N)C(=O)N[C@@H](CCCCN)C(=O)N[C@@H](CCC(N)=O)C(=O)N[C@@H](C)C(=O)N[C@@H](C)C(=O)N[C@H](C(=O)N[C@@H](CCCCN)C(=O)N[C@@H](CCCCN)C(=O)N[C@@H](Cc1ccc(O)cc1)C(=O)N[C@@H](CC(C)C)C(=O)N[C@@H](C)C(=O)N[C@@H](C)C(=O)N[C@H](C(=O)N[C@@H](CC(C)C)C(N)=O)C(C)C)C(C)C)[C@@H](C)O [Peptide 25] (Ac-HA[Ala(1H-tetrazol-5-yl)]GIFT[Ala(1H-tetrazol-5-yl)]SYSRYRKQAAVKKYLAAVL-NH2)	95.8	91.2		
CC[C@H](C)[C@H](NC(=O)CNC(=O)[C@H](Cc1nnn[nH]1)NC(=O)[C@H](CO)NC(=O)[C@H](Cc1c[nH]cn1)NC(C)=O)C(=O)N[C@@H](Cc1ccccc1)C(=O)N[C@H](C(=O)N[C@@H](Cc1nnn[nH]1)C(=O)N[C@@H](CO)C(=O)N[C@@H](Cc1ccc(O)cc1)C(=O)N[C@@H](CO)C(=O)N[C@@H](CCCNC(=N)N)C(=O)N[C@@H](Cc1ccc(O)cc1)C(=O)N[C@@H](CCCNC(=N)N)C(=O)N[C@@H](CCCCN)C(=O)N[C@@H](CCc1nnn[nH]1)C(=O)N[C@@H](CC(C)C)C(=O)N[C@@H](C)C(=O)N[C@H](C(=O)N[C@@H](CCCCN)C(=O)N[C@@H](CCCCN)C(=O)N[C@@H](Cc1ccc(O)cc1)C(=O)N[C@@H](CC(C)C)C(=O)N[C@@H](C)C(=O)N[C@@H](C)C(=O)N[C@H](C(=O)N[C@@H](CC(C)C)C(N)=O)C(C)C)C(C)C)[C@@H](C)O [Peptide 13] (Ac-HS[Ala(1H-tetrazol-5-yl)]GIFT[Ala(1H-tetrazol-5-yl)]SYSRYRK[X1]LAVKKYLAAVL-NH2)	97.4	95.4		
CC[C@H](C)[C@H](NC(=O)CNC(=O)[C@H](Cc1nnn[nH]1)NC(=O)[C@H](CO)NC(=O)[C@H](Cc1c[nH]cn1)NS(C)(=O)=O)C(=O)N[C@@H](Cc1ccccc1)C(=O)N[C@H](C(=O)N[C@@H](Cc1nnn[nH]1)C(=O)N[C@@H](CO)C(=O)N[C@@H](Cc1ccc(O)cc1)C(=O)N[C@@H](CO)C(=O)N[C@@H](CCCNC(=N)N)C(=O)N[C@@H](Cc1ccc(O)cc1)C(=O)N[C@@H](CCCNC(=N)N)C(=O)N[C@@H](CCCCN)C(=O)N[C@@H](CCC(N)=O)C(=O)N[C@@H](CC(C)C)C(=O)N[C@@H](C)C(=O)N[C@H](C(=O)N[C@@H](CCCCN)C(=O)N[C@@H](CCCCN)C(=O)N[C@@H](Cc1ccc(O)cc1)C(=O)N[C@@H](CC(C)C)C(=O)N[C@@H](C)C(=O)N[C@@H](C)C(=O)N[C@H](C(=O)N[C@@H](CC(C)C)C(N)=O)C(C)C)C(C)C)[C@@H](C)O [Peptide 12] (Ms-HS[Ala(1H-tetrazol-5-yl)]GIFT[Ala(1H-tetrazol-5-yl)]SYSRYRKQLAVKKYLAAVL-NH2)	97.0	93.6		
CC[C@H](C)[C@H](NC(=O)[C@H](C)NC(=O)[C@H](Cc1nnn[nH]1)NC(=O)[C@H](CO)NC(=O)[C@H](Cc1c[nH]cn1)NC(C)=O)C(=O)N[C@@H](Cc1ccccc1)C(=O)N[C@H](C(=O)N[C@@H](Cc1nnn[nH]1)C(=O)N[C@@H](CO)C(=O)N[C@@H](Cc1ccc(O)cc1)C(=O)N[C@@H](CO)C(=O)N[C@@H](CCCNC(=N)N)C(=O)N[C@@H](Cc1ccc(O)cc1)C(=O)N[C@@H](CCCNC(=N)N)C(=O)N[C@@H](CCCCN)C(=O)N[C@@H](CCC(N)=O)C(=O)N[C@@H](CC(C)C)C(=O)N[C@@H](C)C(=O)N[C@H](C(=O)N[C@@H](CCCCN)C(=O)N[C@@H](CCCCN)C(=O)N[C@@H](Cc1ccc(O)cc1)C(=O)N[C@@H](CC(C)C)C(=O)N[C@@H](C)C(=O)N[C@@H](C)C(=O)N[C@H](C(=O)N[C@@H](CC(C)C)C(N)=O)C(C)C)C(C)C)[C@@H](C)O [Peptide 23] (Ac-HS[Ala(1H-tetrazol-5-yl)]AIFT[Ala(1H-tetrazol-5-yl)]SYSRYRKQLAVKKYLAAVL-NH2)	96.5	93.1		
CC[C@H](C)[C@H](NC(=O)CNC(=O)[C@H](Cc1nnn[nH]1)NC(=O)[C@H](CO)NC(=O)[C@H](Cc1c[nH]cn1)NC(C)=O)C(=O)N[C@@H](Cc1ccccc1)C(=O)N[C@H](C(=O)N[C@@H](Cc1nnn[nH]1)C(=O)N[C@@H](CO)C(=O)N[C@@H](Cc1ccc(O)cc1)C(=O)N[C@@H](C)C(=O)N[C@@H](CCCNC(=N)N)C(=O)N[C@@H](Cc1ccc(O)cc1)C(=O)N[C@@H](CCCNC(=N)N)C(=O)N[C@@H](CCCCN)C(=O)N[C@@H](CCC(N)=O)C(=O)N[C@@H](CC(C)C)C(=O)N[C@@H](C)C(=O)N[C@H](C(=O)N[C@@H](CCCCN)C(=O)N[C@@H](CCCCN)C(=O)N[C@@H](Cc1ccc(O)cc1)C(=O)N[C@@H](CC(C)C)C(=O)N[C@@H](C)C(=O)N[C@@H](C)C(=O)N[C@H](C(=O)N[C@@H](CC(C)C)C(N)=O)C(C)C)C(C)C)[C@@H](C)O [Peptide 16] (Ac-HS[Ala(1H-tetrazol-5-yl)]GIFT[Ala(1H-tetrazol-5-yl)]SYARYRKQLAVKKYLAAVL-NH2)	98.1	93.5		
CC[C@H](C)[C@H](NC(=O)CNC(=O)[C@H](Cc1nnn[nH]1)NC(=O)[C@H](CO)NC(=O)[C@H](Cc1c[nH]cn1)NS(C)(=O)=O)C(=O)N[C@@H](Cc1ccccc1)C(=O)N[C@H](C(=O)N[C@@H](Cc1nnn[nH]1)C(=O)N[C@@H](C)C(=O)N[C@@H](Cc1ccc(O)cc1)C(=O)N[C@@H](CO)C(=O)N[C@@H](CCCNC(=N)N)C(=O)N[C@@H](Cc1ccc(O)cc1)C(=O)N[C@@H](CCCNC(=N)N)C(=O)N[C@@H](CCCCN)C(=O)N[C@@H](CCC(N)=O)C(=O)N[C@@H](CC(C)C)C(=O)N[C@@H](C)C(=O)N[C@H](C(=O)N[C@@H](CCCCN)C(=O)N[C@@H](CCCCN)C(=O)N[C@@H](Cc1ccc(O)cc1)C(=O)N[C@@H](CC(C)C)C(=O)N[C@@H](C)C(=O)N[C@@H](C)C(=O)N[C@H](C(=O)N[C@@H](CC(C)C)C(N)=O)C(C)C)C(C)C)[C@@H](C)O [Peptide 29] (Ms-HS[Ala(1H-tetrazol-5-yl)]GIFT[Ala(1H-tetrazol-5-yl)]AYSRYRKQLAVKKYLAAVL-NH2)				91.9
CC[C@H](C)[C@H](NC(=O)[C@H](C)NC(=O)[C@H](Cc1nnn[nH]1)NC(=O)[C@H](CO)NC(=O)[C@H](Cc1c[nH]cn1)NC(C)=O)C(=O)N[C@@H](Cc1ccccc1)C(=O)N[C@H](C(=O)N[C@@H](Cc1nnn[nH]1)C(=O)N[C@@H](CO)C(=O)N[C@@H](Cc1ccc(O)cc1)C(=O)N[C@@H](CO)C(=O)N[C@@H](CCCNC(=N)N)C(=O)N[C@@H](Cc1ccc(O)cc1)C(=O)N[C@@H](CCCNC(=N)N)C(=O)N[C@@H](CCCCN)C(=O)N[C@@H](C)C(=O)N[C@@H](C)C(=O)N[C@@H](C)C(=O)N[C@H](C(=O)N[C@@H](CCCCN)C(=O)N[C@@H](CCCCN)C(=O)N[C@@H](Cc1ccc(O)cc1)C(=O)N[C@@H](CC(C)C)C(=O)N[C@@H](C)C(=O)N[C@@H](C)C(=O)N[C@H](C(=O)N[C@@H](CC(C)C)C(N)=O)C(C)C)C(C)C)[C@@H](C)O [Peptide 34] (Ac-HS[Ala(1H-tetrazol-5-yl)]AIFT[Ala(1H-tetrazol-5-yl)]SYSRYRKAAAVKKYLAAVL-NH2)				96.9
